# Literature values as cited in patent US11065330B2, “Induction of antigen-specific tolerance by peripheral phagocytosis” (PLS-Design GmbH, priority 2014, dated 2021).
# “Also recorded” adds a separate entry of the source. Like-named read-outs stand apart in the source and are kept apart here. Where no end group is shown, it is not given here.
# B1: Q116D/Y119D: murine IL-4 double mutant inhibiting IL-4/IL-13-mediated effects (protein, UniProt P07750 21-140, looked up, variant Q116D Y119D)
# Interleukin-4: HIHGCDKNHLREIIGILNEVTGEGTPCTEMDVPNVLTATKNTTESELVCRASKVLRIFYLKHGKTPCLKKNSSVLMELQRLFRAFRCLDSSISCTMNESKSTSLKDFLESLKSIMDMDDS
# Experiments:
# murine CD22 = murine CD22 (Mus musculus, UniProt P35329)
# Chain of murine CD22 (P35329 22-868): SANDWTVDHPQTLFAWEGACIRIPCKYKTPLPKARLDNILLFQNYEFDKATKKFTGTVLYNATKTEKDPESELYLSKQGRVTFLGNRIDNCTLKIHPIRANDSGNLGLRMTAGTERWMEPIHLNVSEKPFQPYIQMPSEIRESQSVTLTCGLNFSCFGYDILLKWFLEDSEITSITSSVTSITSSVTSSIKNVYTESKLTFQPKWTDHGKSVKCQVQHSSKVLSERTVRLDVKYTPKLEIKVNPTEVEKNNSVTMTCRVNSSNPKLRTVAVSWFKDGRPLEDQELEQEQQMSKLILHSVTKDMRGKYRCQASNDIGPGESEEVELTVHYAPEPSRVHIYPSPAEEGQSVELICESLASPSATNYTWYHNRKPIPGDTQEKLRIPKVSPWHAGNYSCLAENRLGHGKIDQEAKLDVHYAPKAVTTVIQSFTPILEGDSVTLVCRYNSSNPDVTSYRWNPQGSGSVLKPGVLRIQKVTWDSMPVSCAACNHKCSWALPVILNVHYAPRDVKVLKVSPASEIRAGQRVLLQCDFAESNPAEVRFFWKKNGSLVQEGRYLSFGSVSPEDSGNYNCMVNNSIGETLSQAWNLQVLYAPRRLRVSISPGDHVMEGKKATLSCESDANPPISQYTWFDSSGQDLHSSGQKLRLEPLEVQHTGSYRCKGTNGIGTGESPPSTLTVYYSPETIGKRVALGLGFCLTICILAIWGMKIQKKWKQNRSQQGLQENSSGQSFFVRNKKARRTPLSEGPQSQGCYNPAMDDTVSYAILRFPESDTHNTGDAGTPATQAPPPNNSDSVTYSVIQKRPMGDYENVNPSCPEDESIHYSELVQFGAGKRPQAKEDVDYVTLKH
# [1] = tested on: Lyme arthritis and collagen-induced arthritis in mice; conditions: diet, 20 ng/mouse/day
# [2] = tested on: OVA-induced allergic asthma in mice; conditions: 10 ng with 100 μg OVA immunotherapy
# [3] = for solubility in 1:5 solution of ethanol:PBS: 1:5 ethanol:PBS, pH 7.2
# EAE model = conditions: i.p. 5 μg/kg every 2 days
# [4] = tested on: mouse model of peritonitis; conditions: 100 ng dose
# [5] = tested on: human polymorphonuclear leukocyte (PMN) transendothelial migration; conditions: read-out: EC50, reduction of PMN transendothelial migration
# NF-kappa B translocation = conditions: read-out: concentration for 50% inhibition
# IL-4 gene transcription = conditions: read-out: concentration for 50% inhibition
# phagocytes = conditions: for maximal migration of phagocytes, increase: at about 100 nM
# [6] = tested on: isolated rat cardiomyocytes; set-up: dose or concentration left out as unconfirmed; conditions: preincubation 2-3 hours, GSM or exogenous NAC
# [7] = tested on: ovalbumin-specific IgE and IgG1 responses
# cystic fibrosis = conditions: oral 600 mg to 1000 mg three times daily, 4 weeks
# [8] = tested on: intestinal ischaemia/reperfusion injury model; conditions: 10 mg/kg i.v., rats
# [9] = not given; remark: listed apart in the source
# rheumatoid arthritis = conditions: three months, on methotrexate
# calcium metabolism = conditions: compared to 1,25-(OH)2D3
# [10] = for time detectable in serum by HPLC: rats
# psoriasis = conditions: more than 10 years clinical use
# [11] = tested on: OVA-induced allergy in mice; conditions: topical calcipotriol, then transcutaneous OVA with CpG adjuvant
# asthma exacerbation = conditions: six months, budesonide 800 μg/d and cholecalciferol 500 IU
# [12] = tested on: baboon model of Escherichia coli sepsis; conditions: 10 mg/kg i.v. bolus then 60 μg/kg/min infusion
# [13] = tested on: alternative pathway of complement activation (C3) in sera from guinea pigs; conditions: read-out: IC50 of haemolytic activity
# [14] = tested on: alternative pathway of complement activation (C3) in sera from mice; conditions: read-out: IC50 of haemolytic activity
# [15] = tested on: alternative pathway of complement activation (C3) in sera from rats; conditions: read-out: IC50 of haemolytic activity
# [16] = human, in vivo
# [17] = tested on: IL-4/IL-13-mediated effects in murine model of allergy; conditions: 50 μg pre and post OVA, then 30 μg twice a day, day 1 to 8
# [18] = tested on: OVA-induced allergic airway inflammation; conditions: intranasal 10 μg every fourth day, 3 weeks
# [19] = 1.0 g/liter in drinking water, 8 days
molecule,measurement,setting,value
9-biphenylacetyl-N-glycolylneuraminic acid-α2-6-galactose-β1-4-N-acetylglucosamine-β-ethylamine [6′-^BPANeuGc],"affinity for murine CD22, fold higher than natural ligand NeuGcα2-6Galβ1-4GlcNAc-β-ethylamine",murine CD22,200 fold
"C=C1/C(=C\C=C2/CCC[C@]3(C)[C@@H]([C@H](C)CCCC(C)(C)O)CC[C@@H]23)C[C@@H](O)C[C@@H]1O [1,25-(OH)2D3, 1α,25-dihydroxyvitamin D3]",diabetes development,NOD mice,prevented the development of diabetes; also recorded: prevented diabetes onset
same,progression of arthritis and hypercalcemia,[1],effective in inhibiting the progression of arthritis without producing hypercalcemia
same,airway hyper-responsiveness,[2],significantly inhibited airway hyper-responsiveness
same,solubility in 1:5 solution of ethanol:PBS,[3],approx. 0.15 mg/ml
same,solubility in ethanol,[3],approx. 50 mg/ml
same,treated mice in which appearance of paralysis was prevented,EAE model,70%
CC/C=C\C[C@@H](O)/C=C/C=C\C=C\C=C\[C@@H](O)[C@@H](O)C/C=C\CCC(=O)O [17(R)-Resolvin D1],maximal inhibition of leukocyte infiltration,[4],~35%
same,EC50,[5],~0.03 µM
C=C1CC[C@H](O)C/C1=C/C=C1\CCC[C@]2(C)[C@@H]([C@H](C)CCCC(C)(C)O)CC[C@@H]12 [25-OH-D3],adverse effects,"multiple sclerosis; 1,000 to 40,000 IU/day",no adverse effects
same,number of new lesions by MRI,"multiple sclerosis; oral 4,000-40,000 IU/day, 28 weeks",significant decrease in the number of new lesions
same,serum level to be kept to avoid toxicity,based on experiments in the rat,below 250 ng/ml
same,serum level at which toxicity occurs,"rat, in vivo",≥ 500 ng/mL
"CC(=O)Oc1ccccc1C(=O)O [ASA, acetylsalicylic acid]",IC50,NF-kappa B translocation,~3000 µM
same,IC50,IL-4 gene transcription,~1000 µM
Nc1ncnc2c1ncn2[C@@H]1O[C@H](COP(=O)(O)OP(=O)(O)OP(=O)(O)O)[C@@H](O)[C@H]1O [ATP],concentration effecting maximal migration of phagocytes,phagocytes,about 100 nM
same,"maximal migration of phagocytes, increase",phagocytes,threefold
"CSC[C@H](NC(=O)CC[C@H](N)C(=O)O)C(=O)NCC(=O)O [GSM, S-Methylglutathione]",protection against deleterious effects of TNF-alpha on contraction,[6],protected
"CC(=O)N[C@@H](CS)C(=O)O [NAC, N-acetyl-L-cysteine]",protection against deleterious effects of TNF-alpha on contraction,[6],not protected
same,cytotoxicity in resting T cells,"peripheral blood T cells; 1 mM to 20 mM, 3 day period, seven donors",nontoxic
same,T cell function and growth,peripheral blood T cells; 10 mM,effective enhancer of T cell function
same,decrease of ovalbumin-specific IgE,[7]; 0.5 g/liter in drinking water,~30%
same,decrease of ovalbumin-specific IgG1,[7]; 0.5 g/liter in drinking water,~30%
same,decrease of ovalbumin-specific IgE response,[7]; [19],more than 70%
same,decrease of ovalbumin-specific IgG1 response,[7]; [19],more than 70%
same,safety and efficacy of high doses,cystic fibrosis,safe and effective
"O=C([O-])c1ccccc1O.[Na+] [SA, sodium salicylate]",solubility in water,[3]; 20° C.,2000 µg/mL
NC(N)=NCCC[C@H](NC(=O)COCC(c1ccccc1)c1ccccc1)C(=O)O [SB290157],blood pressure effect,[8],rapid and transient hypertension
same,in vivo half-life,[9],short in vivo half-life
O=c1ccn([C@@H]2O[C@H](COP(=O)(O)OP(=O)(O)OP(=O)(O)O)[C@@H](O)[C@H]2O)c(=O)[nH]1 [UTP],concentration effecting maximal migration of phagocytes,phagocytes,about 100 nM
same,"maximal migration of phagocytes, increase",phagocytes,threefold
C=C1/C(=C\C=C2/CCC[C@]3(C)[C@@H]([C@H](C)CCCC(C)C)CC[C@@H]23)C[C@@H](O)C[C@@H]1O [alfacalcidiol],patients going into remission,rheumatoid arthritis,45%
same,patients with improvement of disease activity,rheumatoid arthritis,89%
C=C1/C(=C\C=C2/CCC[C@]3(C)[C@@H]([C@H](C)/C=C/[C@@H](O)C4CC4)CC[C@@H]23)C[C@@H](O)C[C@@H]1O [calcipotriol],"effect on calcium metabolism, times less than 1,25-(OH)2D3",calcium metabolism,100-200 times
same,time detectable in serum by HPLC,[10]; i.v. 10 μg/kg,up to 5 min
same,time detectable in serum by HPLC,[10]; i.v. 50 μg/kg,up to 10 min
same,"rate of clearance, times higher than for 1,25-(OH)2D3","[10]; rat, in vivo",approximately 140 times
same,systemic toxicity on topical use,psoriasis,without systemic toxicity
same,solubility in 1:5 solution of ethanol:PBS,[3],approx. 0.15 mg/ml
same,solubility in ethanol,[3],approx. 50 mg/ml
same,antigen-specific CD8+ T cell priming,[11],abolished antigen-specific CD8+ T cell priming
C=C1CC[C@H](O)C/C1=C/C=C1\CCC[C@]2(C)[C@@H]([C@H](C)CCCC(C)C)CC[C@@H]12 [cholecalciferol],children experiencing asthma exacerbation,asthma exacerbation,17%
CC[C@H](C)[C@H](N)C(=O)N[C@H]1CSSC[C@@H](C(=O)N[C@H](C(N)=O)[C@@H](C)O)NC(=O)[C@H](CCCN=C(N)N)NC(=O)[C@H](Cc2cnc[nH]2)NC(=O)[C@H](Cc2cnc[nH]2)NC(=O)CNC(=O)[C@H](Cc2c[nH]c3ccccc23)NC(=O)[C@H](CC(=O)O)NC(=O)[C@H](CCC(N)=O)NC(=O)[C@H](C(C)C)NC(=O)[C@H](C(C)C)NC1=O [compstatin],procoagulant response and organ protection,[12],decrease the procoagulant response
CC/C=C\C[C@H](O)/C=C/C=C\C=C\C=C\[C@@H](O)[C@@H](O)C/C=C\CCC(=O)O [resolvin D1],EC50,[5],~0.03 µM
MT-hsp65: 65 kDa heat shock protein of Mycobacterium tuberculosis,diabetes development,NOD/Lt mice; single i.p. 50 μg emulsified in IFA,developed within 30 days after the treatment diabetes
same,diabetes development,NOD/Lt mice; single i.p. injection in PBS,did not cause the development of diabetes
PMX53,safety and tolerability,[16],safe and well tolerated
same,half-life,[9]; in vivo,1.17 h
TFGLQLELT [nonapeptide 180-188],rats showing clinical symptoms of adjuvant arthritis during pretreatment,"adjuvant arthritis; i.p. 100 μg in FIA, 35 days before induction",none of the rats
same,rats completely protected against subsequently induced adjuvant arthritis,adjuvant arthritis; three times 100 μg in FIA before induction,11 out of 16
vitamin D,relative risk of type 1 diabetes over the subsequent 30 years,type 1 diabetes; doses of exactly 50 μg/day,0.22
same,relative risk of type 1 diabetes over the subsequent 30 years,type 1 diabetes; doses of over 50 μg/day (2000 IU/d) during infancy,0.14
B1,humoral immune responses to OVA and allergic symptoms,[17],completely abrogated
same,outcome versus SIT with OVA only,[18],did not produce significantly different results
